Reference: patent US20200384053A1, “Ophthalmic Compositions and Medical Uses Thereof in Treatment of Myopia” (SunDragon Bio-medical Technology Co., priority 2019, published 2020)

System: Golden Syrian hamsters
Assay: Monocular form deprivation (MFD) myopia animal model, axial length by A-scan ultrasonography
Assay type: in vivo
Settings: after 21-day daily eye drop treatment
Experimental: 0.125% atropine eye drop was prepared under sterile conditions by dilution of 1% atropine ophthalmic solution with artificial tears (commercially available from Alcon Laboratories, Inc., Fort Worth, Tex., USA). The Extract A and/or Extract C were mixed with 5 ml artificial tears (commercially available from Alcon Laboratories, Inc., Fort Worth, Tex., USA) to reach a final concentration of 150 ng/ml by an oscillator.
3-week old Golden Syrian hamsters, each weighing 80 to 90 grams, were used for experiments. All animals were kept in a 12-hour light/dark cycle. All procedures were approved by the Institutional Animal Care and Use Committee of China Medical University and were conducted in accordance with the guidelines of the Use of Animals in Ophthalmic and Vision Research. Hamsters were raised with right eyelid fusion for 21 days. MFD was induced in the right eyes of the animals, with their left eyes serving as a control. The animals were randomly assigned to […] receiving daily applications of artificial tears or the eye drops prepared in Example 8, respectively, to both eyes. The treatment lasted for 21 days. The axial lengths of both eyes in each animal were measured on the 21st day following the start of the treatment by A-scan ultrasonography (PacScan 300 Plus, NY, USA).

## CN1[C@@H]2CC[C@H]1C[C@@H](OC(=O)C(CO)c1ccccc1)C2 (some centres unmarked) [Atropine, atropine]
Control 0.36±0.05 mm, differences not statistically significant
  axial lengths of the non-MFD (left) eyes: 0.33±0.03 mm
Extracts 150 ng/ml, atropine 0.125%, Control 0.436±0.06 mm, p<0.05 vs Control
  axial lengths of the MFD (right) eyes: 0.358±0.01 mm
